45 compounds from the Biogen ADME set (Fang et al. 2023) can be followed below.

The aqueous solubility is how much of the substance goes into solution per volume. A lower aqueous solubility goes with little dissolved substance.

In brackets after ≈: the same amount, converted by molar mass.

The conditions of this series: for aqueous solubility: pH 6.8.

As for `Cc1ccnc(N2CCC(OCC3CCCC3)CC2)n1`, the MDR1-MDCK efflux ratio is 0.515; the intrinsic clearance, human liver microsomes is 108 mL/min/kg; the intrinsic clearance, rat liver microsomes came out at 5910 mL/min/kg.
For `Cc1cc(C)c(NC(=O)Cn2nnn(-c3cccs3)c2=O)c(C)c1`, the MDR1-MDCK efflux ratio was 0.738 and the aqueous solubility turned out to be 0.77 µg/mL (≈ 2.24 µM).
Regarding `COC(=O)[C@@H]1C[C@H](O)CN1CCc1ccccc1F`, the MDR1-MDCK efflux ratio turned out to be 0.726; the intrinsic clearance, rat liver microsomes worked out at 3370 mL/min/kg; the aqueous solubility was determined as 56.8 µg/mL (≈ 212 µM).
For the compound `O=C(CCCNC(=O)NC1CCCCC1)Nc1cc(C2CC2)n[nH]1`, the aqueous solubility was 43.9 µg/mL (≈ 132 µM).
In turn, `CCN(C(=O)CO)[C@H]1CN(/C(=N\C#N)Nc2cccc(OC(F)F)c2)N=C1c1ccc(Cl)c(Cl)c1` displayed an intrinsic clearance, human liver microsomes of 45 mL/min/kg; an intrinsic clearance, rat liver microsomes of 184 mL/min/kg; an aqueous solubility of 2.33 µg/mL (≈ 4.44 µM).
As for `O=C1CN(c2ccc(Nc3nccc(C(F)(F)F)n3)cn2)CCN1`, the MDR1-MDCK efflux ratio is 2.94; the fraction unbound, human plasma turned out to be 0.35; the fraction unbound, rat plasma is 0.271; the intrinsic clearance, human liver microsomes was no more than 4.74 mL/min/kg. The compound further gave an intrinsic clearance, rat liver microsomes of 24.4 mL/min/kg and an aqueous solubility of 51.3 µg/mL (≈ 152 µM).
For the compound `CC#CC(=O)N1CCC[C@@H]1c1nc(-c2ccc(C(=O)Nc3ccccn3)cc2)c2c(N)nccn12`, the MDR1-MDCK efflux ratio came out at 37.1; the fraction unbound, human plasma worked out at 0.0946; the intrinsic clearance, human liver microsomes was found to be 73.9 mL/min/kg; the intrinsic clearance, rat liver microsomes stood at 275 mL/min/kg.
For `O=C(NCC#CCN1CCc2ccccc2C1)NCc1ccc(F)cc1`, the MDR1-MDCK efflux ratio stood at 4; the intrinsic clearance, human liver microsomes was determined as 79.7 mL/min/kg; the intrinsic clearance, rat liver microsomes came to 545 mL/min/kg; the aqueous solubility was found to be 33.5 µg/mL (≈ 95.2 µM).
For `Nc1ccc2c(c1)ncn2CCc1ccccc1`, in that order: 0.701, no more than 4.74 mL/min/kg, 28.1 mL/min/kg and 38.4 µg/mL (≈ 162 µM).
As to `Cn1cc(CN2CCc3nc4ccccc4c(=O)n3CC2)cn1`, the MDR1-MDCK efflux ratio turned out to be 2.78; the intrinsic clearance, human liver microsomes is no more than 4.74 mL/min/kg; the intrinsic clearance, rat liver microsomes is 19.9 mL/min/kg.
For `CC(=O)N1CCC(CNc2nccc3cccnc23)CC1`, in that order: 1.9, no more than 4.74 mL/min/kg and 80.8 mL/min/kg.
For `O=C(NCC1(c2ccccc2)CC1)c1cccnc1`, the MDR1-MDCK efflux ratio was found to be 0.757; the intrinsic clearance, human liver microsomes is no more than 4.74 mL/min/kg; the intrinsic clearance, rat liver microsomes came out at 231 mL/min/kg; the aqueous solubility was 41.2 µg/mL (≈ 163 µM).
Turning to `COc1ccnc(N2CC(n3nc(C)cc3C)C2)n1`, the MDR1-MDCK efflux ratio is 0.655; the intrinsic clearance, human liver microsomes is no more than 4.74 mL/min/kg; the intrinsic clearance, rat liver microsomes worked out at 44.2 mL/min/kg; the aqueous solubility was 38 µg/mL (≈ 146 µM).
Turning to `Cc1ccc(-c2nc(CC(=O)NCCC(C)C)cs2)cc1`, the MDR1-MDCK efflux ratio amounted to 0.529; the intrinsic clearance, human liver microsomes was determined as 464 mL/min/kg; the intrinsic clearance, rat liver microsomes was found to be 6110 mL/min/kg; the aqueous solubility was found to be 8.17 µg/mL (≈ 27 µM).
The compound `O=C(c1ccc(F)cc1)N1Cc2nc[nH]c2C[C@H]1c1nc(-c2ccc(Cl)cc2)no1` yielded an intrinsic clearance, human liver microsomes of 21.3 mL/min/kg; an intrinsic clearance, rat liver microsomes of 133 mL/min/kg; an aqueous solubility of 20.2 µg/mL (≈ 47.7 µM).
Take `CN(C)CCOc1ccc(-c2nc(-c3ccncc3)c(-c3ccc4c(c3)CC/C4=N\O)[nH]2)cc1`: the MDR1-MDCK efflux ratio was 4.8; the intrinsic clearance, human liver microsomes was determined as 12.7 mL/min/kg; the intrinsic clearance, rat liver microsomes was 171 mL/min/kg; the aqueous solubility stood at 1.1 µg/mL (≈ 2.43 µM).
Take `Cc1cc(C(=O)N(C)C2CCSCC2)c(=O)n(C)c1C`: the MDR1-MDCK efflux ratio is 39; the intrinsic clearance, human liver microsomes was found to be 29.1 mL/min/kg; the intrinsic clearance, rat liver microsomes amounted to 56.4 mL/min/kg.
Take `c1cnn(-c2ccc(-c3ccc(NC4CC4)nn3)cc2)c1`: the aqueous solubility was determined as 0.78 µg/mL (≈ 2.81 µM).
`O=C(CN1CCCC(c2cccc(Cc3cccc(F)c3)n2)C1)N1CCCC1` (configuration not stated): the fraction unbound, human plasma was found to be 0.115; the fraction unbound, rat plasma is 0.0899; the intrinsic clearance, human liver microsomes is 76.2 mL/min/kg; the intrinsic clearance, rat liver microsomes was 1140 mL/min/kg.
As to `CC1(C)CC(=O)C2=C(C1)NC(=O)CC2c1ccc(Br)cc1` (configuration not stated), the MDR1-MDCK efflux ratio worked out at 3.38; the fraction unbound, human plasma worked out at 0.144; the fraction unbound, rat plasma was 0.088; the intrinsic clearance, human liver microsomes is 59.6 mL/min/kg. The compound also returned an intrinsic clearance, rat liver microsomes of 247 mL/min/kg.
For `NC(=O)Cn1ccc(-c2ccccc2)n1`, the MDR1-MDCK efflux ratio stood at 0.792; the intrinsic clearance, human liver microsomes was no more than 4.74 mL/min/kg; the intrinsic clearance, rat liver microsomes was no more than 10.7 mL/min/kg; the aqueous solubility was found to be 40.5 µg/mL (≈ 201 µM).
On to `C[C@@]1(c2ncncc2F)NC(=O)c2cc(-c3cn[nH]c3)ccc21`, for which the MDR1-MDCK efflux ratio came to 21.8; the intrinsic clearance, human liver microsomes was no more than 4.74 mL/min/kg; the intrinsic clearance, rat liver microsomes is 34.9 mL/min/kg; the aqueous solubility came out at 37.5 µg/mL (≈ 121 µM).
With `CC(C)N(C)S(=O)(=O)NCCCc1nc2cc(Cl)ccc2[nH]1`, the MDR1-MDCK efflux ratio turned out to be 16.7; the intrinsic clearance, human liver microsomes is 134 mL/min/kg; the intrinsic clearance, rat liver microsomes came to 2500 mL/min/kg.
`CCN(C/C=C/c1ccc(F)cc1)Cc1nc(COC)no1`: the MDR1-MDCK efflux ratio was determined as 0.527; the intrinsic clearance, human liver microsomes is 25.9 mL/min/kg; the intrinsic clearance, rat liver microsomes worked out at 862 mL/min/kg; the aqueous solubility was found to be 32 µg/mL (≈ 105 µM).
On to `O=C(c1ccc(O)cc1)N1CCN(c2ncnc3c2CCC3)CC1`, for which the MDR1-MDCK efflux ratio stood at 43.2; the intrinsic clearance, human liver microsomes was found to be 12.1 mL/min/kg; the intrinsic clearance, rat liver microsomes was 178 mL/min/kg.
Compound `O=C(Nc1c(F)cccc1Oc1ccccc1)c1cnccn1` showed an intrinsic clearance, human liver microsomes of 34.6 mL/min/kg and an intrinsic clearance, rat liver microsomes of 1080 mL/min/kg.
On to `COc1ccc(CCC(=O)N2CCCNCC2)cc1`, for which the MDR1-MDCK efflux ratio came to 2.76; the intrinsic clearance, human liver microsomes was no more than 4.74 mL/min/kg; the intrinsic clearance, rat liver microsomes was no more than 10.7 mL/min/kg; the aqueous solubility worked out at 35.7 µg/mL (≈ 136 µM).
For `CNC(=O)c1ccc(CN(C)c2c(F)cc(C#N)cc2F)cc1`, in that order: 0.595, 11.5 mL/min/kg, 238 mL/min/kg and 15.7 µg/mL (≈ 49.9 µM).
On to `O=C(/C=C/N1C[C@H]2C[C@@H]1CN2c1ccccn1)c1ccccc1O`, for which the MDR1-MDCK efflux ratio was determined as 0.976 and the aqueous solubility came out at 42 µg/mL (≈ 131 µM).
As for `CCNC(=O)c1cc(C2CC2)nc2c1c(C)nn2-c1ccccn1`, the MDR1-MDCK efflux ratio was 3.78; the intrinsic clearance, human liver microsomes was 25.8 mL/min/kg; the intrinsic clearance, rat liver microsomes was found to be 70.7 mL/min/kg; the aqueous solubility is 54.1 µg/mL (≈ 168 µM).
Turning to `Cc1ccc(S(=O)(=O)Nc2ccccc2-c2nc3ccccc3[nH]2)cc1`, the intrinsic clearance, human liver microsomes was 122 mL/min/kg and the intrinsic clearance, rat liver microsomes was found to be 541 mL/min/kg.
Consider `Cc1cccc(C)c1OCC(=O)N(C)[C@@H]1CCC[C@@H](O)[C@@H]1O`, for which the MDR1-MDCK efflux ratio was 11.2; the intrinsic clearance, human liver microsomes was 9.69 mL/min/kg; the intrinsic clearance, rat liver microsomes was 155 mL/min/kg.
As for `COc1cccc(-n2nc(C(=O)O)cc2-c2ccc(C3CCCCC3)c(Cl)c2)c1`, the MDR1-MDCK efflux ratio was determined as 1.56; the intrinsic clearance, human liver microsomes turned out to be 7.78 mL/min/kg; the intrinsic clearance, rat liver microsomes was found to be 32.5 mL/min/kg; the aqueous solubility is 33.8 µg/mL (≈ 82.1 µM).
Take `N#Cc1ccc2ncnc(N[C@H]3CC[C@H](N4CCOCC4)CC3)c2c1`: the MDR1-MDCK efflux ratio was determined as 24.6; the intrinsic clearance, human liver microsomes was 9.63 mL/min/kg; the intrinsic clearance, rat liver microsomes worked out at 49.2 mL/min/kg.
As for `CC(C)c1nc2c(n1C)CCN(c1ncnc3ccsc13)C2`, the MDR1-MDCK efflux ratio amounted to 3.28; the intrinsic clearance, human liver microsomes was found to be 21.7 mL/min/kg; the intrinsic clearance, rat liver microsomes turned out to be 567 mL/min/kg; the aqueous solubility was found to be 54.4 µg/mL (≈ 173 µM).
As to `c1ccc(-c2cn(C3CNC3)nn2)cc1`, the intrinsic clearance, human liver microsomes is no more than 4.74 mL/min/kg and the intrinsic clearance, rat liver microsomes was determined as 28.6 mL/min/kg.
In the case of `O=C1NC2(CCCC2)C(=O)N1Cc1ccccc1F`, the aqueous solubility amounted to 44.5 µg/mL (≈ 170 µM).
Consider `CC(C)C(=O)Nc1ncn(Cc2cccnc2)n1`, for which the MDR1-MDCK efflux ratio stood at 16.3; the intrinsic clearance, human liver microsomes was no more than 4.74 mL/min/kg; the intrinsic clearance, rat liver microsomes is no more than 10.7 mL/min/kg; the aqueous solubility stood at 38 µg/mL (≈ 155 µM).
For `O=C(OCC1CCSCC1)c1cccc(-n2cccn2)n1`, the MDR1-MDCK efflux ratio amounted to 0.495; the intrinsic clearance, human liver microsomes is 679 mL/min/kg; the intrinsic clearance, rat liver microsomes was determined as 2200 mL/min/kg.
`CN(C)c1ccc(C(=O)N2CCN3C(=O)N(Cc4ccccc4)C(=O)[C@H]3C2)cc1`: the MDR1-MDCK efflux ratio is 1.61; the intrinsic clearance, human liver microsomes amounted to 30 mL/min/kg; the intrinsic clearance, rat liver microsomes is 389 mL/min/kg; the aqueous solubility came to 13.6 µg/mL (≈ 34.7 µM).
Regarding `O=C(Nc1nc2cccc(-c3ccc(CN4CCS(=O)(=O)CC4)cc3)n2n1)C1CC1`, the MDR1-MDCK efflux ratio worked out at 136; the fraction unbound, human plasma is 0.48; the fraction unbound, rat plasma amounted to 0.4; the intrinsic clearance, human liver microsomes is no more than 4.74 mL/min/kg. This compound also had an intrinsic clearance, rat liver microsomes of 19.4 mL/min/kg and an aqueous solubility of 47.1 µg/mL (≈ 111 µM).
Turning to `Cc1cc(CNc2cc(C(=O)N(C)C)ccn2)sc1Br`, the MDR1-MDCK efflux ratio was 0.744; the intrinsic clearance, human liver microsomes was determined as 36.2 mL/min/kg; the intrinsic clearance, rat liver microsomes came out at 799 mL/min/kg; the aqueous solubility amounted to 47.3 µg/mL (≈ 134 µM).
`CNC(=O)c1cccc(Oc2ncnc3c2CN(C)CC3)c1`: the MDR1-MDCK efflux ratio was determined as 19.2; the intrinsic clearance, human liver microsomes is no more than 4.74 mL/min/kg; the intrinsic clearance, rat liver microsomes was no more than 10.7 mL/min/kg; the aqueous solubility came to 46.9 µg/mL (≈ 157 µM).
Compound `C[C@H](C(=O)Nc1nc2ccccc2[nH]1)N1Cc2ccccc2C1=O` showed an intrinsic clearance, human liver microsomes of no more than 4.74 mL/min/kg; an intrinsic clearance, rat liver microsomes of 62.6 mL/min/kg; an aqueous solubility of 26.5 µg/mL (≈ 82.6 µM).
In the case of `CC(=O)N1CCN(Cc2nc(O)cc(C(F)(F)F)n2)C(C)(C)C1`, the MDR1-MDCK efflux ratio is 26.6; the intrinsic clearance, human liver microsomes was no more than 4.74 mL/min/kg; the intrinsic clearance, rat liver microsomes was no more than 10.7 mL/min/kg.
